Molecules are shown by their SMILES.

A word on the IC50: it is the concentration that inhibits the measured activity by half.

The target of this test is T1, human αVβ6 (Homo sapiens, UniProt P06756+P18564).
T1 construct: purchased R & D systems 3817-AV
Kind of test: human αVβ6 HTRF binding assay. The method, then:
All binding assays used the HTRF (homogeneous time resolved fluorescence) technology from Cisbio International, therefore all assays are described as HTRF binding assays. The assay results for the Examples are listed above together with the characterization data. The HTRF binding assays are established for the following integrins: human αVβ6, human αVβ1, human αVβ3, human αVβ5, and human αVβ8. All assays used the following assay buffer: 20 mM Tris, pH 7.4, 1 mM MgCl2, 1 mM MnCl2, 0.01% Tween 20, and 0.01% BSA. Alternatively, a SPA-based assay was used for evaluation of receptor binding.
[…]

T1 sequence (P06756 31-992 limits assumed): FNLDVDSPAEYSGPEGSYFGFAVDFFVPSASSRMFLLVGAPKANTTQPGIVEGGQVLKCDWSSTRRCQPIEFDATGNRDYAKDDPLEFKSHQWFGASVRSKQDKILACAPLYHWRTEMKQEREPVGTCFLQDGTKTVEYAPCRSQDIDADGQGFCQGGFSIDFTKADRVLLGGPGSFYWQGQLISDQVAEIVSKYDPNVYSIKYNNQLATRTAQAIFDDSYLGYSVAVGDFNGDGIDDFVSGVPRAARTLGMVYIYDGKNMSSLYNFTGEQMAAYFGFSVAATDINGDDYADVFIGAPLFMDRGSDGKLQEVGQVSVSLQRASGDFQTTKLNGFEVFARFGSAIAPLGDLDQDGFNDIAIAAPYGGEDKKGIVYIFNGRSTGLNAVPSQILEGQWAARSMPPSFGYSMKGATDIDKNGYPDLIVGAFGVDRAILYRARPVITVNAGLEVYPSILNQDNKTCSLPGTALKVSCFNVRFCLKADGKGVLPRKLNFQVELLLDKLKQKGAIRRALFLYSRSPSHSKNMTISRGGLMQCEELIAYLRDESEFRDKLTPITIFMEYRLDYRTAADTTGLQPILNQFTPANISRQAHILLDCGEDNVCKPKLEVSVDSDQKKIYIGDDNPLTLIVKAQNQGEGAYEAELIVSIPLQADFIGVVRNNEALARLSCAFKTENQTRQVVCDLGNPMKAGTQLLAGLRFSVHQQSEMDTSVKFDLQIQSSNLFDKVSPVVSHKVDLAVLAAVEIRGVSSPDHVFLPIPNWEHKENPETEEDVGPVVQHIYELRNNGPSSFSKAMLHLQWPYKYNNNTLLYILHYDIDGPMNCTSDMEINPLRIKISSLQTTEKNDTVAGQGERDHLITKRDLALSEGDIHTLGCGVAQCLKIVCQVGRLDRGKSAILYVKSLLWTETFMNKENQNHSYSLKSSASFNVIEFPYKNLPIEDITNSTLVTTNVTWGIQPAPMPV
T1 sequence (P18564 22-707 limits assumed): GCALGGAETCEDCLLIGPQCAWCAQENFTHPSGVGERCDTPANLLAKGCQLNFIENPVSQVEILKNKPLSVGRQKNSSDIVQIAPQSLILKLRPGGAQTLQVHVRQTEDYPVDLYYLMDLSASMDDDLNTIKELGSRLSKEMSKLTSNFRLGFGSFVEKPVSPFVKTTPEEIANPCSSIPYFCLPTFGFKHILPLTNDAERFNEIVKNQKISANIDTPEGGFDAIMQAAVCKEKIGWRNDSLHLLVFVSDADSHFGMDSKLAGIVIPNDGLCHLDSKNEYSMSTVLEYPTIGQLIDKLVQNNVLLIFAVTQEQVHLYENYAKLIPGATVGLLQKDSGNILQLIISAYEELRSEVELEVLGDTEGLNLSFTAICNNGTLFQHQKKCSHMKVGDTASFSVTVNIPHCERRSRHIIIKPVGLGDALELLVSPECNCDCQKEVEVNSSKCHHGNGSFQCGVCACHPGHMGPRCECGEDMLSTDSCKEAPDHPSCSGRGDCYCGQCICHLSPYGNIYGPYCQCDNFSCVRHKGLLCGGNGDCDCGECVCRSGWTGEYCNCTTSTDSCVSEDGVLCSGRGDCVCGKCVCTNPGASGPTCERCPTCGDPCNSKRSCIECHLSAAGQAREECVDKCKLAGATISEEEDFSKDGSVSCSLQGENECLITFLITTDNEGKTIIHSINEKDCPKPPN

`CC(C)(C)c1cc(Br)cc([C@H](CC(=O)O)NC(=O)c2cnn(Cc3ccc4c(n3)NCCC4)c2)c1` [Example 98] yielded an IC50 of 1410 nM. As to `O=C(O)CCN(Cc1cnn(CCc2ccc3c(n2)NCCC3)c1)C(=O)OCc1ccccc1` [Example 176, 3-(((Benzyloxy)carbonyl)((1-(2-(5,6,7,8-tetrahydro-1,8-naphthyridin-2-yl)ethyl)-1H-pyrazol-4-yl)methyl)amino)propanoic acid], the IC50 turned out to be 249 nM.

Turning to `O=C(N[C@@H](CNC(=O)c1cnn(CCc2ccc3c(n2)NCCC3)c1)C(=O)O)OCC(F)(F)F` [Example 153], the IC50 amounted to 1.6 nM. `COc1ccc(C(CC(=O)O)NC(=O)c2cnn(CCc3ccc4c(n3)NCCC4)c2CO)cc1OC` (centres unmarked) [Example 76] gave an IC50 of 131 nM. `COc1ccc([C@H](CC(=O)O)NC(=O)c2cnn(CCCc3ccc4c(n3)NCCC4)c2)cc1F` [Example 74] yielded an IC50 of 125 nM.

For the compound `CC(C)(C)OCc1c(C(=O)NC(CC(=O)O)c2cc(Cl)cc(Cl)c2)cnn1CCCc1ccc2c(n1)NCCC2` (centres unmarked) [Example 59], the IC50 was determined as 40 nM. Compound `O=C(NC[C@H](NS(=O)(=O)Cc1cccc(F)c1)C(=O)O)c1cnn(CCc2ccc3c(n2)NCCC3)c1` [Example 142] registered an IC50 of 8.2 nM. As to `O=C(O)CC(NC(=O)c1cn(CCc2ccc3c(n2)NCCC3)nc1-c1ccccc1)c1ccc(Cl)c(Cl)c1` (centres unmarked) [Example 78], the IC50 stood at 137 nM. Consider `COc1ccc([C@H](CC(=O)O)NC(=O)c2cnn(CCCNc3ccccn3)c2)cn1` [Example 94], for which the IC50 worked out at 592 nM.

Compound `Cc1nc2c(cc1Cn1ncc(C(=O)N[C@@H](CC(=O)O)c3cc(Cl)cc(Cl)c3)n1)CCCN2` [Example 14, (S)-3-(3,5-Dichlorophenyl)-3-(2-((2-methyl-5,6,7,8-tetrahydro-1,8-naphthyridin-3-yl)methyl)-2H-1,2,3-triazole-4-carboxamido)propanoic acid] registered an IC50 of 2210 nM.

In the case of `Cc1cccc(CS(=O)(=O)N[C@@H](CNC(=O)c2cnn(CCc3ccc4c(n3)NCCC4)c2)C(=O)O)c1` [Example 143], the IC50 stood at 11 nM. `COc1ccc([C@H](CC(=O)O)NC(=O)c2cnn(Cc3ccc4c(n3)NCCC4)c2)cn1` [Example 102] yielded an IC50 of 1980 nM. With `COc1ccc([C@H](CC(=O)O)NC(=O)c2cnn(CCc3ccc4c(n3)NCCC4)c2)cn1` [Example 46], the IC50 was 21 nM. In turn, `COc1ccc([C@H](CC(=O)O)N(C)C(=O)c2cnn(CCc3ccc4c(n3)NCCC4)c2)cc1F` [Example 18] registered an IC50 of 13 nM. Turning to `O=C(O)CC(NC(=O)c1cn(CCc2ccc3c(n2)NCCC3)nc1CO)c1cc(Cl)cc(Cl)c1` (centres unmarked) [Example 4, 3-(3,5-Dichlorophenyl)-3-(3-(hydroxymethyl)-1-(2-(5,6,7,8-tetrahydro-1,8-naphthyridin-2-yl)ethyl)-1H-pyrazole-4-carboxamido)propanoic acid], the IC50 stood at 141 nM. As to `Cc1nn(CCc2ccc3c(n2)NCCC3)c(C)c1C(=O)NC(CC(=O)O)c1ccc(C(F)(F)F)cc1` (centres unmarked) [Example 77], the IC50 came to 134 nM. Consider `COc1ccc([C@H](CC(=O)O)NC(=O)c2cnn(CCc3ccc4c(n3)NCCC4)c2-c2ccccc2)cc1F` [Example 91], for which the IC50 amounted to 410 nM.

`O=C(NC[C@H](NS(=O)(=O)Cc1cccc(C(F)(F)F)c1)C(=O)O)c1cnn(CCc2ccc3c(n2)NCCC3)c1` [Example 154] registered an IC50 of 16 nM. As for `O=C(NC[C@H](NS(=O)(=O)CCN1C(=O)c2ccccc2C1=O)C(=O)O)c1cnn(CCc2ccc3c(n2)NCCC3)c1` [Example 151], the figure is 1.2 nM; as for `CC(C)(C)OCc1nn(CCCc2ccc3c(n2)NCCC3)cc1C(=O)NC(CC(=O)O)c1cc(Cl)cc(Cl)c1` (centres unmarked) [Example 5, 3-(3-(tert-Butoxymethyl)-1-(3-(5,6,7,8-tetrahydro-1,8-naphthyridin-2-yl)propyl)-1H-pyrazole-4-carboxamido)-3-(3,5-dichlorophenyl)propanoic acid], 159 nM; as for `Cc1ccc(C(CC(=O)O)NC(=O)c2cnn(CCc3ccc4c(n3)NCCC4)c2CO)cc1` (centres unmarked) [Example 66], 91 nM. Compound `O=C(O)C[C@H](NC(=O)c1cn(CCc2ccc3c(n2)NCCC3)cn1)c1cc(Cl)cc(Cl)c1` [Example 116] yielded an IC50 of 102 nM. For `O=C(NC[C@H](NS(=O)(=O)CC1CCCCC1)C(=O)O)c1cnn(CCc2ccc3c(n2)NCCC3)c1` [Example 164] the value was 6.4 nM. For `CCN(C(=O)c1cnn(CCc2ccc3c(n2)NCCC3)c1)C(CC(=O)O)c1ccc(OC)nc1` (centres unmarked) [Example 17, 3-(N-Ethyl-1-(2-(5,6,7,8-tetrahydro-1,8-naphthyridin-2-yl)ethyl)-1H-pyrazole-4-carboxamido)-3-(6-methoxypyridin-3-yl)propanoic acid] the value was 363 nM; for `O=C(O)C[C@H](NC(=O)c1ncn(CCc2ccc3c(n2)NCCC3)n1)c1cc(Cl)cc(Cl)c1` [Example 120], 98 nM; for `O=C(O)CC(NC(=O)c1cnn(CCc2ccc3c(n2)NCCC3)c1CO)c1cccc(-n2cccc2)c1` (centres unmarked) [Example 64], 64 nM.

In the case of `Cc1cc(C)n(-c2cccc(C(CC(=O)O)NC(=O)c3cnn(CCc4ccc5c(n4)NCCC5)c3COC(C)(C)C)c2)n1` (centres unmarked) [Example 37], the IC50 was 12 nM.

Take `Cc1cc(C)c(S(=O)(=O)N[C@@H](CNC(=O)c2cnn(Cc3cc4c(nc3C)NCCC4)n2)C(=O)O)c(C)c1` [Example 118]: the IC50 turned out to be 223 nM. The compound `O=C(NC[C@H](NS(=O)(=O)Cc1ccc(C(F)(F)F)cc1)C(=O)O)c1cnn(CCc2ccc3c(n2)NCCC3)c1` [Example 150] showed an IC50 of 5.7 nM. As for `Cc1cc(C)c(C(=O)N[C@@H](CNC(=O)c2cnn(CCc3ccc4c(n3)NCCC4)c2)C(=O)O)c(C)c1` [Example 15, (S)-3-(1-(2-(5,6,7,8-Tetrahydro-1,8-naphthyridin-2-yl)ethyl)-1H-pyrazole-4-carboxamido)-2-(2,4,6-trimethylbenzamido)propanoic acid], the figure is 0.9 nM; as for `CC(C)(C)OCc1c(C(=O)NC(CC(=O)O)c2cccc(-n3cccc3)c2)cnn1CCc1ccc2c(n1)NCCC2` (centres unmarked) [Example 34], 10 nM. Take `O=C(O)CC(NC(=O)c1cnn(CCc2ccc3c(n2)NCCC3)c1CO)c1cccc(Oc2cc(Cl)cc(Cl)c2)c1` (centres unmarked) [Example 38]: the IC50 is 13 nM. For the compound `CCOC(=O)C[C@H](NC(=O)c1cnn(CCc2ccc3c(n2)NCCC3)c1)c1cc(Br)cc(C(C)(C)C)c1` [Example 106], the IC50 was 4310 nM.

Turning to `C#CCOC(=O)N[C@@H](CNC(=O)c1cnn(CCc2ccc3c(n2)NCCC3)c1)C(=O)O` [Example 136], the IC50 amounted to 2 nM. In the case of `COCCS(=O)(=O)N[C@@H](CNC(=O)c1cnn(CCc2ccc3c(n2)NCCC3)c1)C(=O)O` [Example 147], the IC50 is 14 nM. The compound `O=C(NC[C@H](NS(=O)(=O)Cc1ccc(Cl)c(Cl)c1)C(=O)O)c1cnn(CCc2ccc3c(n2)NCCC3)c1` [Example 141] gave an IC50 of 3.6 nM. In turn, `O=C(O)CC(NC(=O)c1cnn(CCc2ccc3c(n2)NCCC3)c1CO)c1ccccc1` (centres unmarked) [Example 72] displayed an IC50 of 124 nM. For `COc1ccc(C(CC(=O)O)NC(=O)c2cnn(CCc3ccc4c(n3)NCCC4)c2CO)cc1` (centres unmarked) [Example 73] the value was 124 nM; for `CC(C)(C)c1cc(Br)cc([C@H](CC(=O)O)NC(=O)c2cn(CCc3ccc4c(n3)NCCC4)nc2C(F)(F)F)c1` [Example 63], 56 nM; for `O=C(O)CC(NC(=O)c1cnn(CCc2ccc3c(n2)NCCC3)c1)c1ccc(Cl)c(C(F)(F)F)c1` (centres unmarked) [Example 24], 3.1 nM. Take `O=C(NC[C@H](NS(=O)(=O)Cc1ccccc1C(F)(F)F)C(=O)O)c1cnn(CCc2ccc3c(n2)NCCC3)c1` [Example 128]: the IC50 is 2.5 nM. `CC(C)CC(CC(=O)O)NC(=O)c1cnn(CCc2ccc3c(n2)NCCC3)c1` (centres unmarked) [Example 89] came in with an IC50 of 399 nM. `N[C@@H](CNC(=O)c1cnn(CCc2ccc3c(n2)NCCC3)c1)C(=O)O` [Example 11, (S)-2-Amino-3-(1-(2-(5,6,7,8-tetrahydro-1,8-naphthyridin-2-yl)ethyl)-1H-pyrazole-4-carboxamido)propanoic acid]: the IC50 stood at 121 nM. As for `O=C(O)C[C@H](NC(=O)c1cnn(Cc2ccc3c(n2)NCCC3)c1)c1cc(Cl)cc(Cl)c1` [Example 97], the figure is 1170 nM.

The compound `COc1ccc([C@H](CC(=O)O)NC(=O)c2cn(CCc3ccc4c(n3)NCCC4)nc2C)cc1F` [Example 54] returned an IC50 of 30 nM. As for `Cc1ccc(Oc2cccc(C(CC(=O)O)NC(=O)c3cnn(CCc4ccc5c(n4)NCCC5)c3COC(C)(C)C)c2)cc1` (centres unmarked) [Example 23], the figure is 2.3 nM; as for `O=C(NC[C@H](NS(=O)(=O)Cc1cccc(Br)c1)C(=O)O)c1cnn(CCc2ccc3c(n2)NCCC3)c1` [Example 156], 21 nM; as for `O=C(O)CC(NC(=O)c1cnn(CCc2ccc3c(n2)NCCC3)c1CO)c1cccc(F)c1` (centres unmarked) [Example 75], 130 nM. In turn, `O=C(NC[C@H](NS(=O)(=O)Cc1ccc(F)cc1)C(=O)O)c1cnn(CCc2ccc3c(n2)NCCC3)c1` [Example 168] came in with an IC50 of 17 nM. `C=CCOC(=O)N[C@@H](CNC(=O)c1cnn(CCc2ccc3c(n2)NCCC3)c1)C(=O)O` [Example 133] came in with an IC50 of 2.6 nM.

(Values after patent US10851098B2, “Azole amides and amines as alpha v integrin inhibitors” (BRISTOL-MYERS SQUIBB COMPANY, priority 2016, dated 2020).)
